In patent US9624214B2, “Amino-substituted imidazo[1,2-a]pyridinecarboxamides and their use” (BAYER PHARMA AKTIENGESELLSCHAFT, priority 2012, dated 2017):
Structures can show the parent of a compound that is named as a salt.

These compounds were tested against T1, recombinant guanylate cyclase reporter cell line (Rattus norvegicus, UniProt P19686+P20595) (assay: B-2. Action on recombinant guanylate cyclase reporter cell line). Conditions: MEC = minimal effective concentration; in some cases mean values from individual determinations.
T1 construct: expressed in transfected cells
T1 sequence (P20595 1-619): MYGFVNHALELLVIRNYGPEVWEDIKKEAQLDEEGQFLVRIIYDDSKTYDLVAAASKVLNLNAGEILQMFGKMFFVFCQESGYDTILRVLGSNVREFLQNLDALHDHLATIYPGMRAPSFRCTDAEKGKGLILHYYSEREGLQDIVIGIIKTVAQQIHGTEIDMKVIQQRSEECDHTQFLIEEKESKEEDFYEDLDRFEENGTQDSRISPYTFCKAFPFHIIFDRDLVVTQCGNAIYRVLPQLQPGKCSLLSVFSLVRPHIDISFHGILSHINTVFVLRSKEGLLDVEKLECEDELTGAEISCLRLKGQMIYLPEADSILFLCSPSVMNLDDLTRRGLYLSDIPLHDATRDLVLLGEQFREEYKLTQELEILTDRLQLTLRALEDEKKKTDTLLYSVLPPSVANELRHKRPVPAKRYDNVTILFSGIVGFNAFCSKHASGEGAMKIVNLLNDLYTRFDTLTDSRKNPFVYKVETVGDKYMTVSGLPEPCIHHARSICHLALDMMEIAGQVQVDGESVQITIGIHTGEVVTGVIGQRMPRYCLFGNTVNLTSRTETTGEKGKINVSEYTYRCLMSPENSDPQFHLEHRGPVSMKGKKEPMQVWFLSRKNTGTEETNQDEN
T1 sequence (P19686 1-690): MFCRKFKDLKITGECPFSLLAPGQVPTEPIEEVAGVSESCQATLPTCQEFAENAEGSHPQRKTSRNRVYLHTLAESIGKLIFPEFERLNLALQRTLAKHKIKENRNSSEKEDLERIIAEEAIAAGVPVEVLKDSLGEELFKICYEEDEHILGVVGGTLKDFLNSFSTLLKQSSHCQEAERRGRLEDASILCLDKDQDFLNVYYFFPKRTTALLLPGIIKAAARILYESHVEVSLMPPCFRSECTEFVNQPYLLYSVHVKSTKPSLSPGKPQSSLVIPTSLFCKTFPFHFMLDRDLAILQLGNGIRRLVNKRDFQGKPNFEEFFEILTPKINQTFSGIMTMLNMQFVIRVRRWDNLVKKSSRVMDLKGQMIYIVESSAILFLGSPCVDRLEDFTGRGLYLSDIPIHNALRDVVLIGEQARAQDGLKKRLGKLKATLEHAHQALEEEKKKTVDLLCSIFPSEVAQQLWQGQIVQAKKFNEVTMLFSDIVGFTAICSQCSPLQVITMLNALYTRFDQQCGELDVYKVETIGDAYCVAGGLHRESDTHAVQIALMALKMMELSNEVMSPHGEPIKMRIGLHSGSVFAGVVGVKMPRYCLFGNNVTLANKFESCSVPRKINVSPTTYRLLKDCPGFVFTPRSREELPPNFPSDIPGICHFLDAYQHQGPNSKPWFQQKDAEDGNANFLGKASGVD
Type: cell-based
How it was run: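 Compounds are tested on whole cells carrying a guanylate cyclase reporter construct. The lowest concentration giving an effect is recorded as the MEC.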
For `CCC(C)(N)CNC(=O)c1c(C)nc2c(OCc3c(F)ccc(F)c3F)cc(C)cn12` (single isomer, unassigned; enantiomer a) [Example 300, ent-N-(2-amino-2-methylbutyl)-2,6-dimethyl-8-[(2,3,6-trifluorobenzyl)oxy]imidazo[1,2-a]pyridine-3-carboxamide (Enantiomer A) Hydrochloride], the MEC was 0.10 µM. `Cc1cc(OCc2c(F)cccc2F)c2nc(C)c(C(=O)NC3CCC3N)n2c1` (single isomer, unassigned; enantiomer a) [Example 328, ent-N-(2-aminocyclobutyl)-8-[(2,6-difluorobenzyl)oxy]-2,6-dimethylimidazo[1,2-a]pyridine-3-carboxamide (Enantiomer A)] was tested, and the MEC was 3.00 µM. In the case of `Cc1cc(OCc2c(F)cccc2F)c2nc(C)c(C(=O)NC3CCC3(C)N)n2c1` (single isomer, unassigned; enantiomer a) [Example 332, ent-N-[2-amino-2-methylcyclobutyl]-8-[(2,6-difluorobenzyl)oxy]-2,6-dimethylimidazo[1,2-a]pyridine-3-carboxamide (Enantiomer A)], the MEC was 1.00 µM. With `Cc1cc(OCc2c(F)cccc2F)c2nc(C)c(C(=O)NC3(C)CCC3(C)N)n2c1` (single isomer, unassigned; enantiomer a) [Example 336, ent-N-[(2-amino-1,2-dimethylcyclobutyl]-8-[(2,6-difluorobenzyl)oxy]-2,6-dimethylimidazo[1,2-a]pyridine-3-carboxamide (Enantiomer A)] the MEC was 0.30 µM. Work on `CCC(C)(N)CNC(=O)c1c(C)nc2c(OCc3c(F)cccc3F)cc(C)cn12.Cl` (single isomer, unassigned; enantiomer a) [Example 357, ent-N-(2-amino-2-methylbutyl)-8-[(2,6-difluorobenzyl)oxy]-2,6-dimethylimidazo[1,2-a]pyridine-3-carboxamide Hydrochloride (Enantiomer A)] yielded an MEC of 0.03 µM. Compound `Cc1cc(OCc2c(F)cccc2F)c2nc(C)c(C(=O)NCC(N)C#N)n2c1` (single isomer, unassigned; enantiomer a) [Example 401, ent-N-(2-amino-2-cyanoethyl)-8-[(2,6-difluorobenzyl)oxy]-2,6-dimethylimidazo[1,2-a]pyridine-3-carboxamide (Enantiomer A)] has an MEC of 1.00 µM. Compound `Cc1cc(OCc2c(F)cccc2F)c2nc(C)c(C(=O)NCC(C)(N)CCC(F)(F)F)n2c1` (single isomer, unassigned; enantiomer a) [Example 408, ent-N-(2-amino-5,5,5-trifluoro-2-methylpentyl)-8-[(2,6-difluorobenzyl)oxy]-2,6-dimethylimidazo[1,2-a]pyridine-3-carboxamide (Enantiomer A)] has an MEC of 0.10 µM. `Cc1cc(OCc2c(F)ccc(F)c2F)c2nc(C)c(C(=O)NCC(C)(N)CCC(F)(F)F)n2c1` (single isomer, unassigned; enantiomer a) [Example 410, ent-N-(2-amino-5,5,5-trifluoro-2-methylpentyl)-2,6-dimethyl-8-[(2,3,6-trifluorobenzyl)oxy]imidazo[1,2-a]pyridine-3-carboxamide (Enantiomer A)] showed an MEC of 0.10 µM. In the case of `Cc1nc2c(OCc3c(F)cccc3F)cccn2c1C(=O)NC(CN)CC(F)(F)F` (single isomer, unassigned; enantiomer b) [Example 3, ent-N-(1-Amino-4,4,4-trifluorobutan-2-yl)-8-[(2,6-difluorobenzyl)oxy]-2-methylimidazo[1,2-a]-pyridine-3-carboxamide (Enantiomer B)], the MEC was 0.30 µM. `Cc1nc2c(OCc3c(F)cccc3F)cccn2c1C(=O)NC(CN)CCCC(F)(F)F` (single isomer, unassigned; enantiomer b) [Example 6, ent-N-(1-Amino-6,6,6-trifluorohexan-2-yl)-8-[(2,6-difluorobenzyl)oxy]-2-methylimidazo[1,2-a]-pyridine-3-carboxamide (Enantiomer B)] showed an MEC of 0.23 µM. Work on `Cc1nc2c(OCc3c(F)cccc3F)cccn2c1C(=O)NC(CN)c1ccc(F)cc1` (single isomer, unassigned; enantiomer b) [Example 10, ent-N-[2-Amino-1-(4-fluorophenyl)ethyl]-8-[(2,6-difluorobenzyl)oxy]-2-methylimidazo[1,2-a]-pyridine-3-carboxamide (Enantiomer B)] yielded an MEC of 0.30 µM. In the case of `Cc1nc2c(OCc3c(F)cccc3F)cccn2c1C(=O)NC(CN)c1ccc(Cl)cc1` (single isomer, unassigned; enantiomer b) [Example 15, ent-N-[2-Amino-1-(4-chlorophenyl)ethyl]-8-[(2,6-difluorobenzyl)oxy]-2-methylimidazo[1,2-a]-pyridine-3-carboxamide (Enantiomer B)], the MEC was 0.53 µM. `Cc1nc2c(OCc3c(F)cccc3F)cccn2c1C(=O)NC(CN)c1ccccc1` (single isomer, unassigned; enantiomer b) [Example 18, ent-N-(2-Amino-1-phenylethyl)-8-[(2,6-difluorobenzyl)oxy]-2-methylimidazo[1,2-a]pyridine-3-carboxamide (Enantiomer B)] showed an MEC of 0.55 µM. With `Cc1nc2c(OCc3c(F)cccc3F)cccn2c1C(=O)NC(C)CN` (single isomer, unassigned; enantiomer b) [Example 20, ent-N-(1-Aminopropan-2-yl)-8-[(2,6-difluorobenzyl)oxy]-2-methylimidazo[1,2-a]pyridine-3-carboxamide (Enantiomer B)] the MEC was 1.00 µM. `Cc1nc2c(OCc3c(F)cccc3F)cc(Cl)cn2c1C(=O)NCC(C)N` (single isomer, unassigned; enantiomer b) [Example 30, ent-N-(2-Aminopropyl)-6-chloro-8-[(2,6-difluorobenzyl)oxy]-2-methylimidazo[1,2-a]pyridine-3-carboxamide (Enantiomer B)] showed an MEC of 0.30 µM. `COCC(N)CNC(=O)c1c(C)nc2c(OCc3c(F)cccc3F)cccn12` (single isomer, unassigned; enantiomer b) [Example 248, ent-N-(2-Amino-3-methoxypropyl)-8-[(2,6-difluorobenzyl)oxy]-2-methylimidazo[1,2-a]pyridine-3-carboxamide (Enantiomer B)] showed an MEC of 1.00 µM. `Cc1cc(OC(C)c2c(F)cccc2F)c2nc(C)c(C(=O)NCC(C)(C)N)n2c1` (single isomer, unassigned; enantiomer b) [Example 256, ent-N-(2-Amino-2-methylpropyl)-8-[1-(2,6-difluorophenyl)ethoxy]-2,6-dimethylimidazo[1,2-a]-pyridine-3-carboxamide (Enantiomer B)] gave an MEC of 3.00 µM. Work on `Cc1cc(OCc2c(F)cccc2F)c2nc(C)c(C(=O)NCC(C)(N)C3CC3)n2c1` (single isomer, unassigned; enantiomer b) [Example 261, ent-N-(2-Amino-2-cyclopropylpropyl)-8-[(2,6-difluorobenzyl)oxy]-2,6-dimethylimidazo[1,2-a]-pyridine-3-carboxamide (Enantiomer B)] yielded an MEC of 0.10 µM. Compound `Cc1nc2c(OCc3c(F)cccc3F)cccn2c1C(=O)NCC(C)(N)CCOCc1ccccc1` (single isomer, unassigned; enantiomer b) [Example 267, ent-N-[2-Amino-4-(benzyloxy)-2-methylbutyl]-8-[(2,6-difluorobenzyl)oxy]-2-methylimidazo[1,2-a]pyridine-3-carboxamide (Enantiomer B)] has an MEC of 0.10 µM. In the case of `Cc1cc(OCc2c(F)cccc2F)c2nc(C)c(C(=O)NCC(C)(N)CO)n2c1` (single isomer, unassigned; enantiomer b) [Example 269, ent-N-(2-Amino-3-hydroxy-2-methylpropyl)-8-[(2,6-difluorobenzyl)oxy]-2,6-dimethylimidazo-[1,2-a]pyridine-3-carboxamide (Enantiomer B)], the MEC was 0.65 µM. For `CCC(C)(N)CNC(=O)c1c(C)nc2c(OCc3c(F)ccc(F)c3F)cc(C)cn12` (single isomer, unassigned; enantiomer b) [Example 275, ent-N-(2-Amino-2-methylbutyl)-2,6-dimethyl-8-[(2,3,6-trifluorobenzyl)oxy]imidazo[1,2-a]-pyridine-3-carboxamide (Enantiomer B)], the MEC was 0.10 µM.
